Data: the NIST ThermoML archive (doi:10.1021/je8006474)

Test: xn = mol fraction of the nth substance listed
Conditions: Pycnometric method

Fc1cccc(F)c1 [1,3-difluorobenzene] + CCn1cc[n+](C)c1.O=S(=O)([N-]S(=O)(=O)C(F)(F)F)C(F)(F)F
Conditions	molar volume [m3/mol]
283.3 K, Liquid mixture 1, x1 = 0.757	0.000134
283.3 K, Liquid mixture 2, x1 = 1	9.82e-05
294.4 K, Liquid mixture 1, x1 = 0.755	0.0001363
294.4 K, Liquid mixture 2, x1 = 1	9.93e-05
316.1 K, Liquid mixture 1, x1 = 0.753	0.0001404
316.1 K, Liquid mixture 2, x1 = 1	0.000102
333.3 K, Liquid mixture 1, x1 = 0.748	0.0001429
333.3 K, Liquid mixture 2, x1 = 1	0.000104
353.1 K, Liquid mixture 1, x1 = 0.742	0.000146
353.1 K, Liquid mixture 2, x1 = 1	0.0001065
373 K, Liquid mixture 1, x1 = 0.736	0.0001492
373 K, Liquid mixture 2, x1 = 1	0.000109

Fc1cc(F)c(F)c(F)c1 [1,2,3,5-tetrafluorobenzene] + CCn1cc[n+](C)c1.O=S(=O)([N-]S(=O)(=O)C(F)(F)F)C(F)(F)F
Conditions	molar volume [m3/mol]
283.5 K, Liquid mixture 1, x1 = 0.659	0.0001523
283.5 K, Liquid mixture 2, x1 = 1	0.0001053
298.3 K, Liquid mixture 1, x1 = 0.652	0.0001562
298.3 K, Liquid mixture 2, x1 = 1	0.0001069
316.7 K, Liquid mixture 1, x1 = 0.647	0.0001579
316.7 K, Liquid mixture 2, x1 = 1	0.0001096
333.2 K, Liquid mixture 1, x1 = 0.638	0.0001605
333.2 K, Liquid mixture 2, x1 = 1	0.0001119
353.1 K, Liquid mixture 1, x1 = 0.631	0.000164
353.1 K, Liquid mixture 2, x1 = 1	0.0001149
373 K, Liquid mixture 1, x1 = 0.623	0.0001688
373 K, Liquid mixture 2, x1 = 1	0.000118

Fc1ccc(F)c(F)c1 [1,2,4-trifluorobenzene] + CCn1cc[n+](C)c1.O=S(=O)([N-]S(=O)(=O)C(F)(F)F)C(F)(F)F
molar volume [m3/mol]
Conditions	Liquid mixture 1, x1 = 0.891	Liquid mixture 1, x1 = 0.892	Liquid mixture 1, x1 = 0.893	Liquid mixture 2, x1 = 0.977
362.4 K	–	–	0.0001242	0.0001135
367.4 K	–	0.0001247	–	0.000114
372.4 K	0.0001252	–	–	0.0001145

Fc1cc(F)cc(F)c1 [1,3,5-trifluorobenzene] + CCn1cc[n+](C)c1.O=S(=O)([N-]S(=O)(=O)C(F)(F)F)C(F)(F)F
Conditions	molar volume [m3/mol]
283.5 K, Liquid mixture 1, x1 = 0.497	0.0001754
283.5 K, Liquid mixture 2, x1 = 1	0.0001013
298.2 K, Liquid mixture 1, x1 = 0.498	0.0001762
298.2 K, Liquid mixture 2, x1 = 1	0.0001035
316.6 K, Liquid mixture 1, x1 = 0.487	0.000179
316.6 K, Liquid mixture 2, x1 = 1	0.0001057
333.2 K, Liquid mixture 1, x1 = 0.482	0.0001815
333.2 K, Liquid mixture 2, x1 = 1	0.000108
353.1 K, Liquid mixture 1, x1 = 0.478	0.000183
353.1 K, Liquid mixture 2, x1 = 1	0.0001108
373 K, Liquid mixture 1, x1 = 0.482	0.0001846
373 K, Liquid mixture 2, x1 = 1	0.0001144

Fc1ccc(F)cc1 [1,4-difluorobenzene] + CCn1cc[n+](C)c1.O=S(=O)([N-]S(=O)(=O)C(F)(F)F)C(F)(F)F
Conditions	molar volume [m3/mol]
283.4 K, Liquid mixture 1, x1 = 0.816	0.0001239
283.4 K, Liquid mixture 2, x1 = 1	9.76e-05
294.4 K, Liquid mixture 1, x1 = 0.814	0.0001255
294.4 K, Liquid mixture 2, x1 = 1	9.88e-05
316.2 K, Liquid mixture 1, x1 = 0.81	0.0001288
316.2 K, Liquid mixture 2, x1 = 1	0.000101
343.2 K, Liquid mixture 1, x1 = 0.807	0.0001337
343.2 K, Liquid mixture 2, x1 = 0.999	0.0001038
353.1 K, Liquid mixture 1, x1 = 0.804	0.0001354
353.1 K, Liquid mixture 2, x1 = 0.999	0.000105
373 K, Liquid mixture 1, x1 = 0.799	0.0001387
373 K, Liquid mixture 2, x1 = 0.999	0.0001069

Fc1ccccc1 [fluorobenzene] + CCn1cc[n+](C)c1.O=S(=O)([N-]S(=O)(=O)C(F)(F)F)C(F)(F)F
Conditions	molar volume [m3/mol]
282.5 K, Liquid mixture 1, x1 = 0.875	0.0001125
282.5 K, Liquid mixture 2, x1 = 0.992	9.31e-05
297.9 K, Liquid mixture 1, x1 = 0.875	0.0001137
297.9 K, Liquid mixture 2, x1 = 0.991	9.45e-05
315.5 K, Liquid mixture 1, x1 = 0.874	0.000115
315.5 K, Liquid mixture 2, x1 = 0.99	9.61e-05
333.2 K, Liquid mixture 1, x1 = 0.872	0.0001169
333.2 K, Liquid mixture 2, x1 = 0.989	9.84e-05
353.1 K, Liquid mixture 1, x1 = 0.869	0.0001197
353.1 K, Liquid mixture 2, x1 = 0.989	0.000101
373 K, Liquid mixture 1, x1 = 0.865	0.0001231
373 K, Liquid mixture 2, x1 = 0.989	0.0001035

Fc1cc(F)c(F)cc1F [1,2,4,5-tetrafluorobenzene] + CCn1cc[n+](C)c1.O=S(=O)([N-]S(=O)(=O)C(F)(F)F)C(F)(F)F
Conditions	molar volume [m3/mol]
283.3 K, Liquid mixture 1, x1 = 0.736	0.0001422
283.3 K, Liquid mixture 2, x1 = 0.999	0.000103
298.2 K, Liquid mixture 1, x1 = 0.731	0.0001449
298.2 K, Liquid mixture 2, x1 = 0.999	0.0001047
315.5 K, Liquid mixture 1, x1 = 0.725	0.0001473
315.5 K, Liquid mixture 2, x1 = 1	0.0001074
333.2 K, Liquid mixture 1, x1 = 0.718	0.0001508
333.2 K, Liquid mixture 2, x1 = 1	0.0001095
353.1 K, Liquid mixture 1, x1 = 0.71	0.0001551
353.1 K, Liquid mixture 2, x1 = 1	0.0001124
373 K, Liquid mixture 1, x1 = 0.702	0.0001595
373 K, Liquid mixture 2, x1 = 1	0.0001157
